The values that follow come from US20160346289A1, “Fixed-Dose Combinations of Antiviral Compounds” (MERCK SHARP & DOHME CORP., priority 2014, published 2016).

Each structure is given as a SMILES string.

Data set [1] in a line: Human pharmacokinetics of Formulation 4 with and without famotidine, co-dosed with Formulation 1. It counts as in vivo. The following applies: Compound II from Formulation 4 co-dosed with Formulation 1; healthy subjects. Here is the method:
For the treatment with famotidine, single oral doses of 20 mg famotidine (1×20 mg tablet) was administered 10 hours and 2 hours prior to an oral dose of Formulation 1 and Formulation 4.

Data set [2] can be described thus: Human pharmacokinetics of Formulation 3 with and without 20 mg famotidine. Format: in vivo. The following applies: conventional formulation of Compound II. Here is the method:
The oral absorption obtained from Formulation 3 with and without pH-modifying medications (20 mg famotidine) was evaluated as part of human clinical study. For the treatment with famotidine, single oral doses of 20 mg famotidine (1×20 mg tablet) were administered on the previous evening and 2 hours prior to a single oral dose of Formulation 3.

Data set [3] is described as follows: Aqueous / pH-dependent solubility. It counts as physicochemical. The following applies: between pH 1-3.

Take `COC(=O)N[C@H](C(=O)N1CCC[C@H]1c1nc(-c2ccc3c(c2)O[C@@H](c2ccccc2)n2c-3cc3cc(-c4c[nH]c([C@@H]5CCCN5C(=O)[C@@H](NC(=O)OC)C(C)C)n4)ccc32)c[nH]1)C(C)C` [Compound II, dimethyl N,N′-([(6S)-6-phenylindolo[1,2-c][1,3]benzoxazine-3,10-diyl]bis{1H-imidazole-5,2-diyl-(2S)-pyrrolidine-2,1-diyl[(2S)-3-methyl-1-oxobutane-1,2-diyl]})dicarbamate]: the “exposure following famotidine versus without famotidine” value in data set [1] was “comparable”. In addition, the “absorption upon co-administration with a pH-raising medication” value in data set [2] is listed as “poor absorption”. Further, the pH-dependent solubility profile result in data set [3] is recorded as “sharp pH-dependent solubility profile”.
